Source: patent US20090202574A1, “METHODS OF IMMUNE OR HAEMATOLOGICAL ENHANCEMENT, INHIBITING TUMOUR FORMATION OR GROWTH, AND TREATING OR PREVENTING CANCER” (priority 2004, published 2009)

Tests used:
EL-4 target cells = test: Anti-tumour CTL and/or NK cell cytolytic activity of splenocytes against EL-4 target cells; conditions: Example 18; mice fed control diet
Experimental: Splenocytes were harvested 28 days following tumour cell injection, as specified. They were incubated at 37° C. with EL-4 target cells in graded E:T ratios in 96-well round-bottom plates. After a 4-hour incubation, 50 μl of supernatant was collected, and lysis was measured using the Cyto Tox 96 Assay Kit (Promega, Madison, Wis., USA). Background controls for non-specific target and effector cell lysis were included. After background subtraction, percentage of cell lysis was calculated using the formula: 100× (experimental-spontaneous effector-spontaneous target/maximum target-spontaneous target).

EL-4 tumours = test: EL-4 tumour growth in mice (s.c. flank tumour model); type: in vivo, C57BL/6 mice; conditions: for EL-4 tumour response: Example 18, 28 g Fe-Lf per 2.4 Kg diet, drugs i.p. at ~0.4 to 0.5 cm
[1] = system: Lewis lung carcinoma (LLC) tumours; test: Lewis lung carcinoma tumour growth in mice; type: in vivo, C57BL/6 mice; conditions: Example 18; 28 g Fe-Lf per 2.4 Kg diet; epirubucin 15 mg/Kg i.p.
Experimental: Tumors were established by s.c. injection of 2×10^5 EL-4 cells into the left flank of mice, and growth determined by measuring two perpendicular diameters. Animals were euthanased when tumors reached more than 1.0 cm in diameter, in accord with Animal Ethics Approval (University of Auckland). All experiments included 5 mice per treatment group, unless otherwise indicated. Paclitaxel (30 mg dissolved in 5 ml of Cremophor® EL and dehydrated alcohol) was diluted in 0.9% NaCl and administered i.p. at 30 mg/Kg. Doxorubucin in water was injected i.p. at 15 mg/Kg. The drugs were injected in a volume of 0.01 to 0.02 ml/g body weight. The expression vector encoding mouse B7-1 was prepared by cesium chloride gradient centrifugation, and diluted to 5 μg/μl in a solution of 5% glucose in 0.01% Triton X-100. It was mixed in a ratio of 1:1 (wt:wt) with DOTAP cationic liposomes (Boehringer Mannheim, Germany). Tumors were injected with 180 μl of DNA (180 μg)/liposome complexes, as described previously (Kanwar, et al., 1999 and Kanwar, et al., 2000).
Mice were fed the control diet, and the same diet supplemented with 28 g of 100% Fe-saturated lactoferrin per 2.4 Kg of diet. EL-4 (2×10^5), Lewis lung carcinoma (LLC, 2×10^5), and B16 melanoma (2×10^5) tumour cells were injected into the left flanks of C57BL/6 mice following two weeks on the Lf diets, or control diet. […]

IL-18 = IL-18 production by cultured intestinal loops; type: cell-based, mice; conditions: Example 20; 400 and 800 μg/ml; 48 h
Experimental: Cytokine levels in the supernatants of homogenates of the small intestine were determined using a “sandwich” ELISA kit (Endogen, Woburn, Mass.). They were detected within standard curve ranges of 15-375 pg/ml for IL-4, 0-2450 pg/ml for IL-5, 15-1000 pg/ml for TNF-α, 0-3000 pg/ml for IFN-γ, 37-3000 pg/ml for IL-10, 31.3-2000 pg/ml for IL-12, and 31.3-2000 pg/ml for IL-18, respectively. Quantification of nitrite, indicative of NO production, was carried out by the Griess reaction (Sigma, USA). The results are expressed as the mean nitrite concentration (μM)±SD.
100% Fe-saturated Lf, natural Lf (less than 20% iron saturated), and bovine serum albumin control were added at 400 and 800 μg/ml to intestinal loops (2.5 cm segments of the small intestine) prepared from healthy 6 to 7 week-old female mice, which were kept in culture for 48 h. IL-18 levels released by the intestinal loops, and present in the supernatants of homogenates of the small intestine were determined using a “sandwich” ELISA kit as described above.

Molecule	effect of drug alone on anti-tumour cytolytic activity (EL-4 target cells)	EL-4 tumour response (EL-4 tumours)	further results
O=c1[nH]cc(F)c(=O)[nH]1 [fluorouracil, reference compound]	only slightly enhanced		
COc1cccc2c1C(=O)c1c(O)c3c(c(O)c1C2=O)C[C@@](O)(C(=O)CO)C[C@@H]3O[C@H]1C[C@H](N)[C@@H](O)[C@H](C)O1 [Epirubucin, reference compound]	negligible effect	slight delay in the growth	LLC tumour response [1]: slight delay in the growth
O=P1(N(CCCl)CCCl)NCCCO1 (stereo not drawn) [cyclophosphamide, reference compound]	small increases	little effect	
CC(=O)O[C@H]1C(=O)[C@@]2(C)[C@H]([C@H](OC(=O)c3ccccc3)[C@]3(O)C[C@H](OC(=O)[C@H](O)[C@@H](NC(=O)c4ccccc4)c4ccccc4)C(C)=C1C3(C)C)[C@]1(OC(C)=O)CO[C@@H]1C[C@@H]2O [paclitaxel, reference compound]			tumour response (EL-4 tumours; Example 5, paclitaxel 30 mg/Kg i.p. at 0.5 cm tumour diameter): grew completely unchecked; tumour response to paclitaxel (EL-4 tumours; Example 15, paclitaxel 30 mg/Kg i.p. at ~0.6 cm, 20 g Lf per 2.4 Kg diet): completely resistant
CN(Cc1cnc2nc(N)nc(N)c2n1)c1ccc(C(=O)N[C@@H](CCC(=O)O)C(=O)O)cc1 [methotrexate, reference compound]	small increases	no discernible effect	
bovine serum albumin: control protein in intestinal loop test [reference compound]			effect on the levels of IL-18 already detectable in the intestine (IL-18): negligible effect
COc1cccc2c1C(=O)c1c(O)c3c(c(O)c1C2=O)C[C@@](O)(C(=O)CO)C[C@@H]3O[C@H]1C[C@H](N)[C@H](O)[C@H](C)O1 [doxorubicin, reference compound]			tumour response (EL-4 tumours; Example 6, doxorubicin 15 mg/Kg and/or paclitaxel 30 mg/Kg single dose i.p. at ~0.55 cm): regressed to half their size within one week of administration of doxorubicin, but then began to grow again
